Test results from article PMC8471451 (Pharmaceuticals, 2021).
Values joined by “and” are separate entries in the source; they are usually repeats but may differ in a detail not shown here. Equal entries are not always repeated.

Key:
HEK-293T-ACE2^h cells = test: Cytotoxicity by MTT assay; format: cell-based, human; details: for CC0 (maximum nontoxic concentration): 4 h incubation; for TC50 (concentration causing 50% host cells' death): 48 h treatment
Protocol: The cytotoxic effect of honokiol derivatives on HEK-293T-ACE2^h cells was evaluated by MTT assay. HEK-293T-ACE2^h cells were seed into 96-well plate at a density of 1×10^4 cells per well and then treated with various concentrations of compounds for either 4 or 48 h. Then 10 μL of 3-(4, 5-dimethylthiazol-2-yl)-2, 5-diphenyltetrazolium bromide (MTT) (5 mg/mL) solution was added to each well for another 4 h incubation. The supernatants were then removed, and the formed formazan crystals were dissolved in 100 μL DMSO and the plate was agitated for 10 min. Relative cell viability was assessed by measuring the absorbance at 570 nm by using a microplate reader (Infinite M200 PRO Microplate Reader, Tecan, Swiss). The survival rate of HEK-293T-ACE2^h cells was calculated using the following formula: [(ODtreated-ODblank) / (ODcontrol-ODblank)] × 100%. The 50% toxic concentration (TC50) for 48 h was calculated by the GraphPad Prism 8.0 software (La Jolla, CA, USA). The maximum nontoxic concentration (CC0) for 4 h was determined as the maximum tested concentration in which the cell viability was 100%. Data were obtained from three independent experiments.

[1] = system: SARS-CoV-2 spike pseudovirus; test: microbe, parasite or virus in culture; format: cell-based; details: for IC50: Severe acute respiratory syndrome coronavirus 2, read-out: IC50 (inhibition of 50% viral entry into host cells)
human ACE2 protein = target: T1, human ACE2 protein (Homo sapiens, UniProt Q9BYF1); test: Biolayer interferometry (BLI) binding assay with human ACE2; details: His-tagged human ACE2 on Ni-NTA biosensor, 30 °C, 1:1 model
T1 construct: purchased Sino Biological

[2] = target: T2, SARS-CoV-2 spike RBD protein (Severe acute respiratory syndrome coronavirus 2, UniProt P0DTC2); format: binding
T2 construct: purchased Sino Biological

[3] = target: T3, SARS-CoV-2 spike RBD binding with ACE2 protein (Homo sapiens, UniProt Q9BYF1); test: Competitive ELISA of spike RBD binding with ACE2; format: biochemical; details: read-out: Inhibitory rate of spike RBD-ACE2 binding
T3 construct: purchased Sino Biological
T3 sequence (Q9BYF1 18-740): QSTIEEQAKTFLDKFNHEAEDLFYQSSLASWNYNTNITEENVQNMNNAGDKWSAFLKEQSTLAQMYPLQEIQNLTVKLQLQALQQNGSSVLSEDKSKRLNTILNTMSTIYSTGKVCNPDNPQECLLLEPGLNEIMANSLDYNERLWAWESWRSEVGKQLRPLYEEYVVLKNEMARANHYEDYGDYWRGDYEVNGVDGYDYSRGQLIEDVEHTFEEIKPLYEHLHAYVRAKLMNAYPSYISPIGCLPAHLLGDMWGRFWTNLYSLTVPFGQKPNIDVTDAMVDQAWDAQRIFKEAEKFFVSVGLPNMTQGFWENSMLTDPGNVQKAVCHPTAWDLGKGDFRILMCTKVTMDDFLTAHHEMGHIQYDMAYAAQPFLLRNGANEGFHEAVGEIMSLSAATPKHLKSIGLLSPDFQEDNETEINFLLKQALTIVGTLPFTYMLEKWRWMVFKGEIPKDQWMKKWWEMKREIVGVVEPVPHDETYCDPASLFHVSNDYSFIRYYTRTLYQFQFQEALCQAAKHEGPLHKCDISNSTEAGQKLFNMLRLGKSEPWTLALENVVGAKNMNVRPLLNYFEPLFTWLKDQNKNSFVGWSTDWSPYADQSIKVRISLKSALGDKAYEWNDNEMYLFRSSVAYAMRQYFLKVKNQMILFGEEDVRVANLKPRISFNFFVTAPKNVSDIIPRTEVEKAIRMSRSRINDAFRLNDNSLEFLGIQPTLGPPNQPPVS

T1 sequence (Q9BYF1 18-805): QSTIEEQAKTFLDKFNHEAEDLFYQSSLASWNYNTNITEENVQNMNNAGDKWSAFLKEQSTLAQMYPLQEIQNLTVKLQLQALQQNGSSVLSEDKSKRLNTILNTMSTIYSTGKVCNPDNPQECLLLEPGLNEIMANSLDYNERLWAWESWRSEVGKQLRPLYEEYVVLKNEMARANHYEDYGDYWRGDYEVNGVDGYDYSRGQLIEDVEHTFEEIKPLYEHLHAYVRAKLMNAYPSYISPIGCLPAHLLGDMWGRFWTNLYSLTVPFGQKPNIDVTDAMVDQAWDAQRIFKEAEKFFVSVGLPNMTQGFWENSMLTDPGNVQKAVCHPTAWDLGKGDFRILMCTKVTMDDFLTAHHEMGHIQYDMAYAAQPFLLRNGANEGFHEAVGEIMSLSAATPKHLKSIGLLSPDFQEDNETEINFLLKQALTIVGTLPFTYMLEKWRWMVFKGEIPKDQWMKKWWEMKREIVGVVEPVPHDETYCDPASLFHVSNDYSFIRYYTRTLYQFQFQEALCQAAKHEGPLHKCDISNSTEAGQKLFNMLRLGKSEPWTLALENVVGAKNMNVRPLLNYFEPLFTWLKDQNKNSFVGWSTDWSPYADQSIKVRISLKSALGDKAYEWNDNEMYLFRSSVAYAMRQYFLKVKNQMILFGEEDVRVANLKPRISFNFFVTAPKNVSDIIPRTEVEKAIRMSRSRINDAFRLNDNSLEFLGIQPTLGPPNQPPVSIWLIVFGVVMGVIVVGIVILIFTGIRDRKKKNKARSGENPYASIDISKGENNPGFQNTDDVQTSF

Row | SMILES | CC0 (maximum nontoxic concentration) (HEK-293T-ACE2^h cells) [µM] | IC50 [1] [µM] | TC50 (concentration causing 50% host cells' death) (HEK-293T-ACE2^h cells) | also measured
1 | C=CCc1cc(-c2cc(CC=C)c3oc(=O)n(Cc4nnc(-c5ccccc5F)o4)c3c2)c2oc(=O)n(Cc3nnc(-c4ccccc4F)o3)c2c1 [Compound 6h] | >100 | 61.6 ± 1.21 | – | SI (selectivity index, TC50/IC50) [1]: >1.62
2 | C=CCc1cc(-c2cc(CC=C)c3oc(=O)n(Cc4nnc(-c5ccc(Cl)cc5)o4)c3c2)c2oc(=O)n(Cc3nnc(-c4ccc(Cl)cc4)o3)c2c1 [Compound 6d] | 50 | > 50 | – | –
3 | C=CCc1cc(-c2cc(CC=C)c3oc(=O)n(Cc4nnc(-c5cccc(F)c5)o4)c3c2)c2oc(=O)n(Cc3nnc(-c4cccc(F)c4)o3)c2c1 [Compound 6i] | >100 | > 100 | >100 µM | Antiviral entry activity (in words) [1]: complete loss of antiviral activities
4 | C=CCc1cc(-c2cc(CC=C)c3oc(=O)n(Cc4nnc(-c5ccccc5)o4)c3c2)c2oc(=O)n(Cc3nnc(-c4ccccc4)o3)c2c1 [Compound 6a] | >100 | 29.2 ± 0.71 | >100 µM | SI (selectivity index, TC50/IC50) [1]: >3.42; Kd (human ACE2 protein): 8.41 ± 0.43 µM
5 | C=CCc1cc(-c2cc(CC=C)c3oc(=O)n(Cc4nnc(-c5cccc(C)c5)o4)c3c2)c2oc(=O)n(Cc3nnc(-c4cccc(C)c4)o3)c2c1 [Compound 6l] | >100 | > 100 | >100 µM | –
6 | C=CCc1cc(-c2cc(CC=C)c3oc(=O)n(Cc4nnc(-c5cccc(Br)c5)o4)c3c2)c2oc(=O)n(Cc3nnc(-c4cccc(Br)c4)o3)c2c1 [Compound 6f] | 50 | > 50 | – | –
7 | C=CCc1cc(-c2cc(CC=C)c3oc(=O)n(Cc4nnc(-c5ccc(OC)cc5)o4)c3c2)c2oc(=O)n(Cc3nnc(-c4ccc(OC)cc4)o3)c2c1 [Compound 6p] | >100 | 9.82 ± 1.16 | >100 µM | SI (selectivity index, TC50/IC50) [1]: >10.18; Kd (human ACE2 protein): 6.87 ± 0.29 µM; Interaction with spike RBD [2]: doesn’t show interaction; inhibition at 12.5 µM ([3]; 12.5 µM): 26.1%; inhibition at 25 µM [3]: 37.2%; inhibition at 50 µM [3]: 50.4%
8 | C=CCc1cc(-c2cc(CC=C)c3oc(=O)n(Cc4nnc(-c5ccccc5Br)o4)c3c2)c2oc(=O)n(Cc3nnc(-c4ccccc4Br)o3)c2c1 [Compound 6e] | >100 | > 100 | >100 µM | –
9 | C=CCc1cc(-c2cc(CC=C)c3oc(=O)n(Cc4nnc(-c5ccccc5C)o4)c3c2)c2oc(=O)n(Cc3nnc(-c4ccccc4C)o3)c2c1 [Compound 6k] | >100 | > 100 | >100 µM | –
10 | C=CCc1cc(-c2cc(CC=C)c3oc(=O)n(Cc4nnc(-c5ccccc5OC)o4)c3c2)c2oc(=O)n(Cc3nnc(-c4ccccc4OC)o3)c2c1 [Compound 6n] | 50 | > 50 | – | –
11 | C=CCc1cc(-c2cc(CC=C)c3oc(=O)n(Cc4nnc(-c5ccc(Br)cc5)o4)c3c2)c2oc(=O)n(Cc3nnc(-c4ccc(Br)cc4)o3)c2c1 [Compound 6g] | 50 | > 50 | – | –
12 | C=CCc1ccc(O)c(-c2ccc(O)c(CC=C)c2)c1 [honokiol, reference compound] | 50 | > 50 | 48.23 µM and 48.23 ± 1.19 µM | Kd (human ACE2 protein): 17 ± 3.4 µM; inhibition at 25 µM [3]: 13.8%; inhibition at 50 µM [3]: 20.9%
13 | C=CCc1cc(-c2cc(CC=C)c3oc(=O)n(Cc4nnc(-c5ccccc5Cl)o4)c3c2)c2oc(=O)n(Cc3nnc(-c4ccccc4Cl)o3)c2c1 [Compound 6b] | >100 | > 100 | >100 µM | –
14 | C=CCc1cc(-c2cc(CC=C)c3oc(=O)n(Cc4nnc(-c5ccc(C)cc5)o4)c3c2)c2oc(=O)n(Cc3nnc(-c4ccc(C)cc4)o3)c2c1 [Compound 6m] | 50 | > 50 | – | –
15 | C=CCc1cc(-c2cc(CC=C)c3oc(=O)n(Cc4nnc(-c5cccc(OC)c5)o4)c3c2)c2oc(=O)n(Cc3nnc(-c4cccc(OC)c4)o3)c2c1 [Compound 6o] | >100 | > 100 | >100 µM | –
16 | C=CCc1cc(-c2cc(CC=C)c3oc(=O)n(Cc4nnc(-c5cccc(Cl)c5)o4)c3c2)c2oc(=O)n(Cc3nnc(-c4cccc(Cl)c4)o3)c2c1 [Compound 6c] | >100 | > 100 | >100 µM | –
17 | C=CCc1cc(-c2cc(CC=C)c3oc(=O)n(Cc4nnc(-c5ccc(F)cc5)o4)c3c2)c2oc(=O)n(Cc3nnc(-c4ccc(F)cc4)o3)c2c1 [Compound 6j] | 50 | > 50 | – | Antiviral entry activity (in words) [1]: complete loss of antiviral activities
